Read-outs that look alike come from different tables or passages of the source.
Experiments:
[1] = Stability in mouse liver microsomes; format: in vitro ADME; conditions: 0.5 mg/mL pooled male microsomes, read-out: Intrinsic Clearance (Cl int) Liver Microsomes
Method: Memantine (1 μM) was incubated in 0.5 mg/mL of pooled male rat, mouse, or human liver microsomes (obtained commercially), in 0.1 M phosphate buffer at 37 °C. After pre-warming the mixture for 5 min, reactions were initiated by the addition of NADPH (1 mM). Aliquots (80 μL) were taken at 0, 5, 10, 20 and 40 min, and the reaction immediately terminated by adding into 80 μL of acetonitrile containing an analytical internal standard (IS). Samples were centrifuged and the supernatant fractions analyzed by LC-MS/MS with multiple reaction monitoring (MRM). All incubations were performed in duplicate. Testosterone was used as the positive control. The MRM area response ratio of the analyte over IS for Time=0(control) was set to 100%, the relative decrease in MRM area ratio intensity over time against that of the control (percent parent decrease) was used to determine the half-life (t1/2) of memantine in the incubation. Half-life values were calculated from the relationship:
t1/2 (min) = -0.693/λ, where λ is the slope of the Ln concentration vs time curve. The intrinsic clearance (Clint) was calculated as:
Clint = (0.693 x incubation volume (μL))/(t½ (min) x mg of microsomal protein)

[2] = cited from earlier work
human PEPT2 = biological target: T1, human PEPT2 (Homo sapiens, UniProt Q16348); assay: Indirect uptake transporter assay, PEPT2; format: in vitro ADME
T1 construct: expressed in transfected cells; host or cells: CHO cells
T1 sequence (Q16348 1-729): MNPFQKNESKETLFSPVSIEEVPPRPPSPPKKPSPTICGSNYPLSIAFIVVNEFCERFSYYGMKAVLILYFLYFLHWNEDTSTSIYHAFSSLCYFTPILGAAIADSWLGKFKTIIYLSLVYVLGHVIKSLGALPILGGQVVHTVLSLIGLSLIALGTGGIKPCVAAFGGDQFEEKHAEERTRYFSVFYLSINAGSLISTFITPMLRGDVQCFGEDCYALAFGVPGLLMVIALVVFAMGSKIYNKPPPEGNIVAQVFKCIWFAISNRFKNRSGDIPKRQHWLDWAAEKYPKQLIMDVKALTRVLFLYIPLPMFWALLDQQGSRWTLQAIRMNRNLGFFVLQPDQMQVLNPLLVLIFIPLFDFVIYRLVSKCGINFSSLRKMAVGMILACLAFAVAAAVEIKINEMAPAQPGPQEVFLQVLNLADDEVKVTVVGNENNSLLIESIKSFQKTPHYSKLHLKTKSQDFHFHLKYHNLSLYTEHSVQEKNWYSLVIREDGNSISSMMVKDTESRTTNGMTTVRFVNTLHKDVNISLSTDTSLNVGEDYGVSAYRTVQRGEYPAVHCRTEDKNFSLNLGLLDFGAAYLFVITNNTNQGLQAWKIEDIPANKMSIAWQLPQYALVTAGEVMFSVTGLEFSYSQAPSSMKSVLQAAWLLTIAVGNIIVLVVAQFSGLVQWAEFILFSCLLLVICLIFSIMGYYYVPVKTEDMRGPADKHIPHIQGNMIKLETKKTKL
Source text: To determine whether memantine is an inhibitor of the human OATP2B1 (OATP-B), OCT1, OCT2, OAT3, PEPT1, PEPT2 uptake transporters. The standard uptake transporter assay is an indirect, inhibitory-type screening assay, performed with cold test article, which in this case was memantine. It provides information on any interaction (substrate or inhibitor) between selected uptake transporters and memantine that would affect the transport of the reporter compound. […] A radiolabeled reporter substrate is transported into the cells transfected with the selected human uptake transporter, and the inhibitory effect of memantine on the transport of this reporter substrate is measured. Values are presented on a relative scale; 100% defined as transport in the presence of the solvent and without memantine (no inhibition), and 0% defined as transport detected without transporter activity. IC50 is defined as the concentration required to inhibit the transport of the reporter substrate by 50%. […]
After the experiment cells were rinsed with 2 x 100µl of Krebs-Henseleit buffer and lysed with 50 µl of 0.1M NaOH. ^3H-estrone-3-sulfate, ^14C-TEA, ^14C-metformin and ^3H-Gly-Sar transport was determined by total radioactivity by transferring an aliquot (35µl) from each well to a vial containing liquid scintillant for analysis.

CC12CC3CC(C)(C1)CC(N)(C3)C2 [memantine]
microsomal CLint at 1 μM [1]: < 13.9 µL/min/mg
Cmax ([2]; human plasma/serum, 10 mg twice daily po, normal renal clearance): 83.5 ng/mL
Cmax ([2]; human plasma/serum, 10 mg twice daily, read-out: Cmax): 470 nM
Cmax ([2]; human, 10 mg BID po, read-out: Cmax): 470 nM
C min ([2]; human, 10 mg BID): 300 nM
Cmax/Cmin ratio at steady state ([2]; human, 10 mg BID): 1.54
renal clearance as share of total systemic clearance ([2]; human, acidic conditions): 92%
renal clearance as share of total systemic clearance ([2]; human, alkaline conditions): 60-67%
Total plasma clearance (Clp) ([2]; human, normal renal function): 182 mL/min
renal clearance (Clr) ([2]; human, normal renal function): 164 mL/min
share of total plasma clearance accounted for by renal clearance ([2]; human, normal renal function): 90%
Tmax ([2]; human, po): 4 to 6 h
dose eliminated as intact memantine in the urine ([2]; human): 75-90%
elimination half-life ([2]; human): 60 to 80 h
volume of distribution at steady state (Vdss) ([2]; human): 9 to 11 L/kg
IC50 (human PEPT2; PEPT2, probe printed in Table 5: E3S (0.3µM), methods and text: Gly-Sar): ND (Not Determined (< 50% inhibition))
inhibition at 300 µM (human PEPT2; at 300 µM, read-out: inhibition of PEPT2-mediated glycylsarcosine transport): 22%

From paper PMC3269340, “Pharmacokinetics of memantine in rats and mice” (PLoS Currents, 2012)
